# Experimental data from ChEMBL document CHEMBL1201862, “PubChem BioAssay data set” (2004).
# Calls of active or inactive are those of the source.
# Tests used:
# [1] = molecular target: T1, Fatty acid synthase (Homo sapiens, UniProt P49327); assay: FAS thioesterase domain inhibitors, dose response, biochemical, endpoint fluorescence intensity, uHTS hits (AID 624327); assay type: functional;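 note: fluorescence from hydrolysis of an O-methyl fluorescein acyl ester substrate by the enzyme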
# [2] = molecular target: T1, Fatty acid synthase; assay: FAS thioesterase domain inhibitors, dose response, biochemical, kinetic fluorescence intensity (AID 624326); assay type: functional;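 note: rate of fluorescence rise from hydrolysis of a fluorogenic O-methyl fluorescein ester substrate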
# [3] = molecular target: T2, Ubiquitin-conjugating enzyme E2 N (Homo sapiens, UniProt P61088); assay type: functional;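 note: Dose-response confirmation in a TR-FRET assay detecting UBC13-driven polyubiquitin chain formation, inhibition measured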
# T2 sequence (P61088 whole entry): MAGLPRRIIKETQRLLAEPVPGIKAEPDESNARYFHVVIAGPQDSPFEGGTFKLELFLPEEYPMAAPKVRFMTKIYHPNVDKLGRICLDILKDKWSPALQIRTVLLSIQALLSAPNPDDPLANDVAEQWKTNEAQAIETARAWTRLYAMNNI
# [4] = tested on: H9c2; assay: cells; assay type: functional, cell-based; conditions: Rattus norvegicus, H9c2, Myocardium;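 note: confirmatory concentration-response retest of ultra-high-throughput screening hits for modulation of myocardial damage; cell death induced by hydrogen peroxide oxidative stress; compound pretreatment for 60 min then peroxide exposure for 2 h; potency is for protecting the cells against peroxide damage rather than for killing them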
# [5] = molecular target: T3, Calpain-2 catalytic subunit (Sus scrofa, UniProt P43367); assay: pig calpain II inhibitor potency, dose response, biochemical, fluorogenic peptide substrate (AID 1420); assay type: functional
# T3 sequence (P43367 whole entry): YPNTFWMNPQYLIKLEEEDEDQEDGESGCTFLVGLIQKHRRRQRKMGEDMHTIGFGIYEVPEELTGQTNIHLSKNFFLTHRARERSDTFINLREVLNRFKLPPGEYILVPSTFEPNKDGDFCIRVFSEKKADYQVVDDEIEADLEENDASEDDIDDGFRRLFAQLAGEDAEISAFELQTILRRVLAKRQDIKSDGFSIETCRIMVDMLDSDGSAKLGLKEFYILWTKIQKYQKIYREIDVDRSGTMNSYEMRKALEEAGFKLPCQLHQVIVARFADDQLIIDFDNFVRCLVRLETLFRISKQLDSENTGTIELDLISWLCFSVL
# [6] = molecular target: T4, Aminopeptidase N (Plasmodium falciparum FcB1/Columbia, UniProt O96935); assay: P. falciparum M1AAP inhibitors, biochemical, fluorogenic H-Leu-NHMec substrate, 1536-well (AID 1445); design: species or system Plasmodium falciparum 3D7, 3D7
# T4 sequence (O96935 whole entry): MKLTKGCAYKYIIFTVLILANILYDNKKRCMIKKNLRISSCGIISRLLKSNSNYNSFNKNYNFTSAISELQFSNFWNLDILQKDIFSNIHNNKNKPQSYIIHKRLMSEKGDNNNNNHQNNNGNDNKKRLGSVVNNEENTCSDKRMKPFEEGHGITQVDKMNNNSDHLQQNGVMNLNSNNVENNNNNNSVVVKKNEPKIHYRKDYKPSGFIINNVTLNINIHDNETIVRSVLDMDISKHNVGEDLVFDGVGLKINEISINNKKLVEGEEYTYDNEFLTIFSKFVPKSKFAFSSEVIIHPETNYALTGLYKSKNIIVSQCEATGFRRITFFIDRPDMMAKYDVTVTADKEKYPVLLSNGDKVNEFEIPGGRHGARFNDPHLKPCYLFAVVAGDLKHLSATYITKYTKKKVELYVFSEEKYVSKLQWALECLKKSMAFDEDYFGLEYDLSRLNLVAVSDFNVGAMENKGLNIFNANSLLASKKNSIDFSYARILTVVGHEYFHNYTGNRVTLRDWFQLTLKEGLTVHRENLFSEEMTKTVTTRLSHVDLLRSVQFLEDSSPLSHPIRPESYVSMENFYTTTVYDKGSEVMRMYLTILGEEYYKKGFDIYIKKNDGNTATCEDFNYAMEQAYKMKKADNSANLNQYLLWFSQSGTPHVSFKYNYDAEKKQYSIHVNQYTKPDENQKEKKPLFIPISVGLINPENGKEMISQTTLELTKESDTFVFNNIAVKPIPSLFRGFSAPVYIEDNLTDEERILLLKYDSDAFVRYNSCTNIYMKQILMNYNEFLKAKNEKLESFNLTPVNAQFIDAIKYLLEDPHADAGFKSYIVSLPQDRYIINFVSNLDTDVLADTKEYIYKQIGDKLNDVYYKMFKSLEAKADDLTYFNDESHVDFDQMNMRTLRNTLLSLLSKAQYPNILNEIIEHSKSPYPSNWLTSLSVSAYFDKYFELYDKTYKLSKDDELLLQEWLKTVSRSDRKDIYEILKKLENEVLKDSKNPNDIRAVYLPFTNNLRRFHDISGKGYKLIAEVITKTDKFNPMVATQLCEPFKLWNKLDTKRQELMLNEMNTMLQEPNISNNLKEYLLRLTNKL
# [7] = NIH-3T3 fibroblast cytotoxicity, dose response, cytotoxicity control, cell-based, fluorescence, Alamar Blue, secondary assay (AID 2327); assay type: functional;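 note: NIH-3T3 mouse fibroblasts cultured with fluconazole at 8 µg/mL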
# [8] = C. albicans growth with fluconazole, confirmation, fluorescence, retest (AID 2467); assay type: functional, cell-based
# [9] = molecular target: Heat shock protein HSP 90-alpha (Homo sapiens, UniProt P07900); assay type: functional, organism-based
# [10] = Luminescence Cell-Based Dose Retest to Confirm Inhibitors of Cancer Stem Cells. [Related pubchem assays (depositor defined):AID2717, AID2721]; assay type: functional; conditions: Homo sapiens
# [11] = inhibitors of HIV Env-driven cell fusion, dose response, cherry-pick (AID 652057); assay type: functional, cell-based
# [12] = off-target signal loss in HeLa-CEM21 co-culture – HeLa F-luc CTL cells, cherry-picked, counter-screen for HIV-1 Env fusion inhibitor project, dose response (AID 652040); assay type: functional, cell-based;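 note: potency for signal decrease marking cytotoxic or nonspecific inhibition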
# [13] = inhibitors of clade B AD8 Env fusion, dose response, cell-based, cherry-pick (AID 652062); assay type: functional;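 note: luciferase signal from cell-cell fusion driven by HIV-1 clade B AD8 Env; potency is for inhibitors of fusion seen as a drop in luminescence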
# [14] = molecular target: T5, Short transient receptor potential channel 4 (Mus musculus, UniProt Q9QUQ5); assay: mouse TRPC4 channel activators, dose response, cell-based, HEK293 TRPC4/mu-opioid, Fluo-4 calcium (AID 434937); assay type: functional
# T5 sequence (Q9QUQ5 whole entry): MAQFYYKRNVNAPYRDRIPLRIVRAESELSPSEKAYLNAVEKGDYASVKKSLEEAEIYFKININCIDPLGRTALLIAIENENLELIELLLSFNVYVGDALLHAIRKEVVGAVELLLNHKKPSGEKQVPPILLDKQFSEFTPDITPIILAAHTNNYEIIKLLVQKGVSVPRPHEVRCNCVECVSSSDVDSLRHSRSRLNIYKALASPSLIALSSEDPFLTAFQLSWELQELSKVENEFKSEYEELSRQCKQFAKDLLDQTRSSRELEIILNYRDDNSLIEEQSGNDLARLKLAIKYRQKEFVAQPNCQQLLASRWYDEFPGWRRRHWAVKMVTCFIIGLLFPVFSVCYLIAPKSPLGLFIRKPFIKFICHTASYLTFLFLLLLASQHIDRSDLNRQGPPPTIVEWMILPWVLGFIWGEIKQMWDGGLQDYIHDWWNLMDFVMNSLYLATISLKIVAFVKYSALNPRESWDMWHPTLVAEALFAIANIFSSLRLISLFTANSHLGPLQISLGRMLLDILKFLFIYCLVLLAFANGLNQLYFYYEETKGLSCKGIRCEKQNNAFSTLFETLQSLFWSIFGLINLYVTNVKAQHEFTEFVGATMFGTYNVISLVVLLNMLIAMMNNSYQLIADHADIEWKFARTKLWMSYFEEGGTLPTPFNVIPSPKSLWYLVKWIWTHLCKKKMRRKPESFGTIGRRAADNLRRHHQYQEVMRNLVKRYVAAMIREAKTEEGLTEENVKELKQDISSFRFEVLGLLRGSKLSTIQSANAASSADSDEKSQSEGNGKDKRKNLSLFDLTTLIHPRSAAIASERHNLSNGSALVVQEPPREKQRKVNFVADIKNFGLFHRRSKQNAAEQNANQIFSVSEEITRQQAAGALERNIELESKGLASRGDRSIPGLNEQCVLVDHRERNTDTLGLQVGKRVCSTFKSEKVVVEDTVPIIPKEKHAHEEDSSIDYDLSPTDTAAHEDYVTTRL
# [15] = inhibitors of intracellular T. cruzi replication, confirmation, NIH3T3 host cells, beta-gal luminescence (AID 2044); assay type: functional, cell-based;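 note: intracellular parasites grown in NIH/3T3 mouse fibroblasts as host cells; luminescent beta-galactosidase reporter signal from transgenic T. cruzi replicating inside host cells; inhibitors lower the luminescence signal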
# [16] = cytotoxicity toward NIH3T3 fibroblasts, dose response, counter-screen, cell-based, ATP luminescence, mouse fibroblasts (AID 2010); assay type: functional;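 note: cells exposed to compound for about 90 hours before reading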
# [17] = molecular target: Luciferin 4-monooxygenase (Photinus pyralis, UniProt P08659); assay: firefly luciferase enzyme inhibitors, dose response, biochemical, luminescence (AID 1891)
# Chain of Luciferin 4-monooxygenase (P08659 whole entry): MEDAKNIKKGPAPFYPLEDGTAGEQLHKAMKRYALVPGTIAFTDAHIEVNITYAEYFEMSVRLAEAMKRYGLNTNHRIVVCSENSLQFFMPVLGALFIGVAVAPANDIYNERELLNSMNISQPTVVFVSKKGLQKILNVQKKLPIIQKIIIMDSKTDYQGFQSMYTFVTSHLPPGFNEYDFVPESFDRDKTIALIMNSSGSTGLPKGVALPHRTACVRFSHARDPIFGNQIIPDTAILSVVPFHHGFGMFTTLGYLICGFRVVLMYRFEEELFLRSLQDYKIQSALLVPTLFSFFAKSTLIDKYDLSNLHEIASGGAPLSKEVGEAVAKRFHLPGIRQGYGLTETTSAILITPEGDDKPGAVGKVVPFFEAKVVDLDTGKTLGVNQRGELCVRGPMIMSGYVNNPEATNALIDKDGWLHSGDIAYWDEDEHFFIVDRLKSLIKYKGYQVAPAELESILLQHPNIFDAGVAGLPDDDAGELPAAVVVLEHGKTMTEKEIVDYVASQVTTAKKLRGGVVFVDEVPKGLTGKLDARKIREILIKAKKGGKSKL
# [18] = Luminescence Cell-Based Dose Confirmation HTS to Identify Inhibitors of Platelet Dense Granule Release. [Related pubchem assays: 1663 (Primary HTS), 1678 (Summary of Project)]; assay type: functional
# [19] = molecular target: Genome polyprotein (dengue virus type 2, UniProt P29990); assay: Dengue-2 NS5 methyltransferase inhibitors, primary screen, biochemical, confirmation dose response (AID 588689); assay type: functional
# Chain of Genome polyprotein (P29990 2492-3391 limits assumed): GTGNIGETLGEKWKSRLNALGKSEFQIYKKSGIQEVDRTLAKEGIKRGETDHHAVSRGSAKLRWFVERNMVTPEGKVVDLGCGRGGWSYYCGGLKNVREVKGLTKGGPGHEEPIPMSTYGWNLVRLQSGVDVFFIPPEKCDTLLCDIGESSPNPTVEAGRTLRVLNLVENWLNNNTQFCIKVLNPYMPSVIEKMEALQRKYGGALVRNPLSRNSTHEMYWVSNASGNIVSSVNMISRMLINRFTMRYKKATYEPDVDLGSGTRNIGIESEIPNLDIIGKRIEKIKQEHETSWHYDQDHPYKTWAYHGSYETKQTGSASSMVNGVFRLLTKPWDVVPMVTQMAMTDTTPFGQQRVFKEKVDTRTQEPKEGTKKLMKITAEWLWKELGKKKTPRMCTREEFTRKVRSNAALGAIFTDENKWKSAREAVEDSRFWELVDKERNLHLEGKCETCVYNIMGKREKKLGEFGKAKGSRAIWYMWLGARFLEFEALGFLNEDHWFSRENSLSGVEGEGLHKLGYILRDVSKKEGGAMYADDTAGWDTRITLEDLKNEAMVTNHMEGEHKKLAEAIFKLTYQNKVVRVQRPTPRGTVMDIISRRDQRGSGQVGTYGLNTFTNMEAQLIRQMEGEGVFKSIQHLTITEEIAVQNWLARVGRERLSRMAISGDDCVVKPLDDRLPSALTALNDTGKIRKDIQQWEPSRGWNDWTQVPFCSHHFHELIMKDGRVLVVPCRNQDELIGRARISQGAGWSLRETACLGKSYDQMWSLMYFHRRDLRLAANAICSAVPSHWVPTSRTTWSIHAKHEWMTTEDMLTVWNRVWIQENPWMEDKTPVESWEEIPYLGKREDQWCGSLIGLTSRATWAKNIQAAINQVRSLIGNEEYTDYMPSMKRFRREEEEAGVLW
# T1 sequence (P49327 whole entry, the tested form may be a part): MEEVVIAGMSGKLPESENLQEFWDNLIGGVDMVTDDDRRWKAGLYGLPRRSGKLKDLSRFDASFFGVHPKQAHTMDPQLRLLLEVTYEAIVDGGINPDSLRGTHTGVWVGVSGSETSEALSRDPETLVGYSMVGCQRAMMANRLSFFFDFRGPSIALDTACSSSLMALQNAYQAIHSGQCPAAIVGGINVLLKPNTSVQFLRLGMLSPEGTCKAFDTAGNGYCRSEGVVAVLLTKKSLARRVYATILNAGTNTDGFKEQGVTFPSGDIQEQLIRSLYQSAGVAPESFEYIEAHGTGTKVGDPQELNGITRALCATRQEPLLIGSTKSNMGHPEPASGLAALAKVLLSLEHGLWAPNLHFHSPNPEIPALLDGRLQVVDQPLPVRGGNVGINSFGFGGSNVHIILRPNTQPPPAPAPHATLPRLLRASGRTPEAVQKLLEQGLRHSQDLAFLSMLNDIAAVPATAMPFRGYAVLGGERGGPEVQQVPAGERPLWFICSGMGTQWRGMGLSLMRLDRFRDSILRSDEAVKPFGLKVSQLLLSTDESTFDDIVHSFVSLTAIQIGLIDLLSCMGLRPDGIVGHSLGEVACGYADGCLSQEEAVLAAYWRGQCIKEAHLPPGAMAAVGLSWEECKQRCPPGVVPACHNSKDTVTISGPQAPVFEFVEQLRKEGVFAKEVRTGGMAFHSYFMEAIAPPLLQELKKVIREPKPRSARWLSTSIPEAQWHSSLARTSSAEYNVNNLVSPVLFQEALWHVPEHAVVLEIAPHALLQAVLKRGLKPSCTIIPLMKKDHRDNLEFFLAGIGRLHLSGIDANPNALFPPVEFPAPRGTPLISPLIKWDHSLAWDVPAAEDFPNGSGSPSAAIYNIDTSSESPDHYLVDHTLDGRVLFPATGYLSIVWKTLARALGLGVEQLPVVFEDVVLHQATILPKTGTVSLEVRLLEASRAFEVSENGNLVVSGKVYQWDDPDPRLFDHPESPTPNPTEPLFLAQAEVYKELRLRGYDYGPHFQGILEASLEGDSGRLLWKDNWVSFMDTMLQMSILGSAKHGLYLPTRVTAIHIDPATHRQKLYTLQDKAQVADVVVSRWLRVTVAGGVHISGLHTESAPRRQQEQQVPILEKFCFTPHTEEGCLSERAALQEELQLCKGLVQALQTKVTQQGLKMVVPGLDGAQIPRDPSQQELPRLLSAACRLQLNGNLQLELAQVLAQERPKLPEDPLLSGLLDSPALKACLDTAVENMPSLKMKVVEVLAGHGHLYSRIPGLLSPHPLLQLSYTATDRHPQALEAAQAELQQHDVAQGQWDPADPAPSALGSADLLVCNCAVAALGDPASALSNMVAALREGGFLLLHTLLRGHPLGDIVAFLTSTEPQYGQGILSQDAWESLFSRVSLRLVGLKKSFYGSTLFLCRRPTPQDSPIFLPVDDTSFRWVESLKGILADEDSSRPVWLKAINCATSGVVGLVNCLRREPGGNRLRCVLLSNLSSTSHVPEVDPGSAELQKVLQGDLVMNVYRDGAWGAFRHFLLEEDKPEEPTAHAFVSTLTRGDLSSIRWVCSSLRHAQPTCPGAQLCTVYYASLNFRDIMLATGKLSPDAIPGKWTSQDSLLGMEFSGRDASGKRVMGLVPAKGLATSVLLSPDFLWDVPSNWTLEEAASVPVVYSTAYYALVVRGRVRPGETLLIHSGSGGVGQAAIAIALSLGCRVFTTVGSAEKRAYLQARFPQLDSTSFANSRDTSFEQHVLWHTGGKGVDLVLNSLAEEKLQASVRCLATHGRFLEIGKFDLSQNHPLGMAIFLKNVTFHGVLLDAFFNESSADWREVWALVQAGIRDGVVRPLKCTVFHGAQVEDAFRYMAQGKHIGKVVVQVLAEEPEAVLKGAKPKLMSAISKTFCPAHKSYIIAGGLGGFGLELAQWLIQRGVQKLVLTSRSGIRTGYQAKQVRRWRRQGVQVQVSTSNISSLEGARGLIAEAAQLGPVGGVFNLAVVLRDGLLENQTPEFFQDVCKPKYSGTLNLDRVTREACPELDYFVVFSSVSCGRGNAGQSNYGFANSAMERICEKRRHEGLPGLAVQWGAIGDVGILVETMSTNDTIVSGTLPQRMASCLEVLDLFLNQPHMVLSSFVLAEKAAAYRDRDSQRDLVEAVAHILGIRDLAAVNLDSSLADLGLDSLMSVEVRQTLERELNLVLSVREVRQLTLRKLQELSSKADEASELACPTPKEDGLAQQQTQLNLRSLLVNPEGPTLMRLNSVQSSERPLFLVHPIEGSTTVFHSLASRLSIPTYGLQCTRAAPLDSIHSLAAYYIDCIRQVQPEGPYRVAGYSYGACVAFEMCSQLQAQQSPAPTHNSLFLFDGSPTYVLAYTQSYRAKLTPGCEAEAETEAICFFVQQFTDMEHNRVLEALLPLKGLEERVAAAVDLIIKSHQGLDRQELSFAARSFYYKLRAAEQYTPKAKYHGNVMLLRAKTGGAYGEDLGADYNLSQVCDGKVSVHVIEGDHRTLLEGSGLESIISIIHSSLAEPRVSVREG
smiles,measurement,setting,value
COc1cc(OC)c(C2=NOC(C(=O)N3CCc4ccccc4C3)C2)cc1Cl (stereo unspecified),IC50,[1],3.02 µM (active)
same,IC50,[2],2.28 µM (active)
O=C(NCc1ccccc1)/C(=C/c1cccc([N+](=O)[O-])c1)NC(=O)c1ccco1,IC50,[1],4.49 µM (active)
same,IC50,[2],4.38 µM (active)
NC(=O)c1nsc(C(=O)N(c2ccccc2F)C(C(=O)NCc2ccc(F)cc2)c2ccc(O)cc2)c1N (stereo unspecified),IC50,[3],> 20 µM (inactive)
same,IC50,[4],29.8 µM (active)
COc1ccc(C2=Nn3c(nnc3-c3ccco3)SC2)cc1,IC50,[5],9.61 µM (not active)
COc1cc(OC)c(NS(=O)(=O)c2ccc(Cl)c(C(=O)OC(C)C(=O)N3CCCC3)c2)cc1Cl (stereo unspecified),IC50,[6],38.6 µM (active)
CCOc1ccc(Nc2nc(NCC3CCCO3)c3ccccc3n2)cc1 (stereo unspecified),EC50,[7],33.5 µM (inconclusive)
same,EC50,[8],2.32 µM (active)
same,IC50,[3],> 20 µM (inactive)
Cc1ccc(N2C(=O)C3C4C=CC(CN=C(S)N5CCN(c6ccccn6)CC5)(O4)C3C2=O)cc1 (stereo unspecified),AC50,[9],7.77 µM (active)
Oc1ccc(C[C@@H]2CN=C(S)N2CCCCC2CCCCC2)cc1,IC50,[5],12.2 µM (not active)
same,AC50,[10],5.41 µM (active)
CC(=O)N1CCN(S(=O)(=O)c2cccc(C(=O)OCc3ccc(C(C)(C)C)cc3)c2)CC1,IC50,[1],0.376 µM (active)
same,IC50,[2],0.205 µM (active)
O=C1c2ccc(Br)cc2C(=O)N1c1ccc(Cc2ccncc2)cc1,IC50,[5],4.86 µM (not active)
O=C1CC(N2CCCN(C3CC(=O)N(c4ccc(F)cc4)C3=O)CC2)C(=O)N1c1ccc(F)cc1 (stereo unspecified),AC50,[9],4.32 µM (active)
CCCOc1ccc(C(F)(F)F)cc1NC(=O)CCc1c(C)noc1C,AC50,[11],11.6 µM (active)
same,AC50,[12],24.2 µM (active)
same,AC50,[13],51.4 µM (active)
COc1ccc(C(CNC(=O)c2cccc(Br)c2)N2CCCC2)cc1 (stereo unspecified),EC50,[14],1.68 µM (active)
CCOC(=O)NN1C(=O)c2ccccc2NC12CCCC2,IC50,[6],32.6 µM (active)
Cn1c(NCc2ccco2)nc2c1c(=O)n(Cc1ccc(Cl)c(Cl)c1)c(=O)n2C,IC50,[5],4.09 µM (not active)
Cc1c(O)ccc(C(=O)CN2C(=O)c3ccccc3C2=O)c1O,IC50,[5],7.96 µM (not active)
O=C1c2ccccc2C(=O)N1CCCCCc1nc(-c2ccccc2)no1,IC50,[5],3.34 µM (not active)
COc1ccc(C(=O)Nc2cc(C)ccc2NC(=O)COc2ccccc2)cc1,IC50,[5],1.51 µM (not active)
CS(=O)(=O)N1CCc2cc(-c3csc(NC(=O)Cc4cccs4)n3)ccc21,EC50,[15],0.586 µM (active)
same,EC50,[16],> 60 µM (not active)
same,IC50,[1],6.53 µM (active)
same,IC50,[2],9.27 µM (active)
same,AC50,[11],27.1 µM (active)
same,AC50,[12],27.1 µM (active)
same,AC50,[13],9.65 µM (active)
O=C(NC1CCCCC1)NC1CCN(C(=S)NCc2ccco2)CC1,IC50,[6],66.3 µM (active)
CCN1CCN(c2ccc(S(=O)(=O)N3CCOCC3)cc2NC(=O)C(C)Oc2cccc(Cl)c2)CC1 (stereo unspecified),EC50,[14],5.96 µM (active)
COc1ccc(C(CNC(=O)CN2C(=O)NC3(CCCC3)C2=O)N(C)C)cc1 (stereo unspecified),EC50,[14],3.76 µM (active)
CCc1ccc(S(=O)(=O)c2nnn3c2nc(NCCNC(C)=O)c2ccccc23)cc1,IC50,[1],3.84 µM (active)
same,IC50,[2],3.5 µM (active)
O=C(c1ccccc1F)N1CCN(Cc2cccc(Cl)c2)CC1,AC50,[12],> 70 µM (inactive)
same,AC50,[13],3.83 µM (active)
CCOC(=O)C(=CN=C(N)Nc1nc2ccccc2o1)C(=O)OCC,IC50,[6],79.2 µM (active)
O=C(NCCc1ccccn1)C(F)(F)C(F)(F)C(F)(F)C(F)(F)C(F)(F)C(F)F,EC50,[17],> 112 µM (not active)
same,EC50,[18],> 112 µM (not active)
same,EC50,[14],4.73 µM (active)
COc1ccc(C(=O)N2c3cc4c(cc3C(C)=CC2(C)C)OCO4)cc1,IC50,[5],6.36 µM (not active)
O=C(COc1ccc([N+](=O)[O-])cc1)Nc1ccc2c(c1)CCC2,IC50,[1],14.6 µM (active)
same,IC50,[2],6.78 µM (active)
Cc1ccc(S(=O)(=O)Oc2ccccc2C=C2C(=O)NC(=O)NC2=O)cc1,IC50,[19],36.8 µM (active)
O=C(O)CN1C(=O)/C(=C\c2ccccc2OCc2ccccc2)SC1=S,IC50,[19],35.8 µM (active)
CCOc1cc(/C=N/NC2=NC(=O)C(CC(=O)O)S2)ccc1OS(=O)(=O)c1ccc(C)cc1 (stereo unspecified),IC50,[6],47.8 µM (active)
CCN(CC)C(=O)C1CCCN(c2ccc([N+](=O)[O-])cc2/C=N/NC(=O)c2cccc(O)c2)C1 (stereo unspecified),IC50,[1],1.93 µM (active)
same,IC50,[2],1.57 µM (active)
Cc1ccc(/C=N\NC(=O)C2COc3cc4ccccc4cc3O2)o1 (stereo unspecified),EC50,[14],1.88 µM (active)
C/C(=N\Nc1ncc(Cl)cc1Cl)c1ccc(OC(F)F)cc1,IC50,[1],16.1 µM (active)
same,IC50,[2],14.2 µM (active)
